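Tested at 5 concentrations; 48 h exposure; 96-well plates; endpoints linearly interpolated, else capped at highest concentration. GI50 = concentration required for 50% inhibition of growth. Definition used: TGI = concentration required for complete inhibition of growth.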
Key:
Test in all cases: growth of human tumour cells (NCI), 48 h
HOP-62 NSCLC = tested on: HOP-62 NSCLC
SF-539 CNS = tested on: SF-539 CNS
SR leukemia = tested on: SR leukemia
SNB-19 CNS = tested on: SNB-19 CNS
HOP-92 NSCLC = tested on: HOP-92 NSCLC
UO-31 renal = tested on: UO-31 renal
SF-295 CNS = tested on: SF-295 CNS
NCI-H23 lung = tested on: NCI-H23 lung
KM12 colon = tested on: KM12 colon
HCT-116 colon = tested on: HCT-116 colon
COLO 205 colon = tested on: COLO 205 colon
MDA-MB-468 breast = tested on: MDA-MB-468 breast
OVCAR-4 ovarian = tested on: OVCAR-4 ovarian
OVCAR-3 ovarian = tested on: OVCAR-3 ovarian
SK-MEL-28 melanoma = tested on: SK-MEL-28 melanoma
CCRF-CEM leukemia = tested on: CCRF-CEM leukemia
ACHN renal = tested on: ACHN renal
DU-145 prostate = tested on: DU-145 prostate
CAKI-1 renal = tested on: CAKI-1 renal
SK-OV-3 ovarian = tested on: SK-OV-3 ovarian
TK-10 renal = tested on: TK-10 renal
RPMI-8226 leukemia = tested on: RPMI-8226 leukemia
786-0 renal = tested on: 786-0 renal
HCT-15 colon = tested on: HCT-15 colon
IGROV1 ovarian = tested on: IGROV1 ovarian
OVCAR-5 ovarian = tested on: OVCAR-5 ovarian
SK-MEL-5 melanoma = tested on: SK-MEL-5 melanoma
MCF7 breast = tested on: MCF7 breast
EKVX NSCLC = tested on: EKVX NSCLC
MOLT-4 leukemia = tested on: MOLT-4 leukemia
MDA-MB-435 = tested on: MDA-MB-435
BT-549 breast = tested on: BT-549 breast
HCC-2998 colon = tested on: HCC-2998 colon
PC-3 prostate = tested on: PC-3 prostate
MDA-MB-231 breast = tested on: MDA-MB-231 breast
UACC-62 melanoma = tested on: UACC-62 melanoma
SN12C renal = tested on: SN12C renal
A549 NSCLC = tested on: A549 NSCLC
UACC-257 melanoma = tested on: UACC-257 melanoma
SF-268 CNS = tested on: SF-268 CNS
NCI-H522 lung = tested on: NCI-H522 lung
T-47D breast = tested on: T-47D breast
SK-MEL-2 melanoma = tested on: SK-MEL-2 melanoma
NCI-H460 lung = tested on: NCI-H460 lung
SNB-75 CNS = tested on: SNB-75 CNS
MALME-3M melanoma = tested on: MALME-3M melanoma
SW-620 colon = tested on: SW-620 colon
HL-60(TB) leukemia = tested on: HL-60(TB) leukemia
HS 578T breast = tested on: HS 578T breast
NCI-H226 lung = tested on: NCI-H226 lung
HT29 colon = tested on: HT29 colon
K-562 leukemia = tested on: K-562 leukemia
OVCAR-8 ovarian = tested on: OVCAR-8 ovarian
U251 CNS = tested on: U251 CNS
NCI/ADR-RES ovarian = tested on: NCI/ADR-RES ovarian
LOX IMVI melanoma = tested on: LOX IMVI melanoma
RXF 393 renal = tested on: RXF 393 renal
M14 melanoma = tested on: M14 melanoma

Structure (SMILES): COc1cc(NC(=O)c2cccc(C3CCc4c(cc(OC)c(OC)c4OC)O3)c2)cc(OC)c1OC (stereo not given)
- GI50 (HOP-62 NSCLC): 3.51 µM
- TGI (HOP-62 NSCLC): > 100 µM
- GI50 (SF-539 CNS): 2.13 µM
- TGI (SF-539 CNS): 5.81 µM
- GI50 (SR leukemia): 0.925 µM
- TGI (SR leukemia): 84.9 µM
- GI50 (SNB-19 CNS): 5.94 µM
- TGI (SNB-19 CNS): > 100 µM
- GI50 (HOP-92 NSCLC): 3.96 µM
- TGI (HOP-92 NSCLC): > 100 µM
- GI50 (UO-31 renal): 2.59 µM
- TGI (UO-31 renal): 19.2 µM
- GI50 (SF-295 CNS): 2.46 µM
- TGI (SF-295 CNS): > 100 µM
- GI50 (NCI-H23 lung): 4.37 µM
- TGI (NCI-H23 lung): > 100 µM
- GI50 (KM12 colon): 3.1 µM
- TGI (KM12 colon): > 100 µM
- GI50 (HCT-116 colon): 3.69 µM
- TGI (HCT-116 colon): > 100 µM
- GI50 (COLO 205 colon): 2 µM
- TGI (COLO 205 colon): 5.31 µM
- GI50 (MDA-MB-468 breast): 1.24 µM
- TGI (MDA-MB-468 breast): 4.41 µM
- GI50 (OVCAR-4 ovarian): 4.49 µM
- TGI (OVCAR-4 ovarian): > 100 µM
- GI50 (OVCAR-3 ovarian): 3.42 µM
- TGI (OVCAR-3 ovarian): > 100 µM
- GI50 (SK-MEL-28 melanoma): 4.64 µM
- TGI (SK-MEL-28 melanoma): > 100 µM
- GI50 (CCRF-CEM leukemia): 2.75 µM
- TGI (CCRF-CEM leukemia): > 100 µM
- GI50 (ACHN renal): 3.77 µM
- TGI (ACHN renal): > 100 µM
- GI50 (DU-145 prostate): 3.83 µM
- TGI (DU-145 prostate): > 100 µM
- GI50 (CAKI-1 renal): 2.37 µM
- TGI (CAKI-1 renal): > 100 µM
- GI50 (SK-OV-3 ovarian): 3.65 µM
- TGI (SK-OV-3 ovarian): > 100 µM
- GI50 (TK-10 renal): 4.32 µM
- TGI (TK-10 renal): > 100 µM
- GI50 (RPMI-8226 leukemia): 1.95 µM
- TGI (RPMI-8226 leukemia): 12.7 µM
- GI50 (786-0 renal): 4.23 µM
- TGI (786-0 renal): > 100 µM
- GI50 (HCT-15 colon): 2.7 µM
- TGI (HCT-15 colon): > 100 µM
- GI50 (IGROV1 ovarian): 4.15 µM
- TGI (IGROV1 ovarian): > 100 µM
- GI50 (OVCAR-5 ovarian): 5.01 µM
- TGI (OVCAR-5 ovarian): > 100 µM
- GI50 (SK-MEL-5 melanoma): 1.58 µM
- TGI (SK-MEL-5 melanoma): 4.52 µM
- GI50 (MCF7 breast): 2.29 µM
- TGI (MCF7 breast): > 100 µM
- GI50 (EKVX NSCLC): 6.37 µM
- TGI (EKVX NSCLC): > 100 µM
- GI50 (MOLT-4 leukemia): 2.86 µM
- TGI (MOLT-4 leukemia): 27.5 µM
- GI50 (MDA-MB-435): 0.497 µM
- TGI (MDA-MB-435): 3.33 µM
- GI50 (BT-549 breast): 1.99 µM
- TGI (BT-549 breast): 8.22 µM
- GI50 (HCC-2998 colon): 7.64 µM
- TGI (HCC-2998 colon): > 100 µM
- GI50 (PC-3 prostate): 2.66 µM
- TGI (PC-3 prostate): > 100 µM
- GI50 (MDA-MB-231 breast): 4.12 µM
- TGI (MDA-MB-231 breast): > 100 µM
- GI50 (UACC-62 melanoma): 1.74 µM
- TGI (UACC-62 melanoma): 8.33 µM
- GI50 (SN12C renal): 3.47 µM
- TGI (SN12C renal): > 100 µM
- GI50 (A549 NSCLC): 3.91 µM
- TGI (A549 NSCLC): > 100 µM
- GI50 (UACC-257 melanoma): 3.89 µM
- TGI (UACC-257 melanoma): > 100 µM
- GI50 (SF-268 CNS): 3.78 µM
- TGI (SF-268 CNS): > 100 µM
- GI50 (NCI-H522 lung): 1.56 µM
- TGI (NCI-H522 lung): 4.63 µM
- GI50 (T-47D breast): 2.5 µM
- TGI (T-47D breast): 9.29 µM
- GI50 (SK-MEL-2 melanoma): 2.66 µM
- TGI (SK-MEL-2 melanoma): > 100 µM
- GI50 (NCI-H460 lung): 3.24 µM
- TGI (NCI-H460 lung): > 100 µM
- GI50 (SNB-75 CNS): 2.33 µM
- TGI (SNB-75 CNS): 7.99 µM
- GI50 (MALME-3M melanoma): 2.45 µM
- TGI (MALME-3M melanoma): > 100 µM
- GI50 (SW-620 colon): 3.52 µM
- TGI (SW-620 colon): > 100 µM
- GI50 (HL-60(TB) leukemia): 2.04 µM
- TGI (HL-60(TB) leukemia): 5.79 µM
- GI50 (HS 578T breast): 2.04 µM
- TGI (HS 578T breast): 6.74 µM
- GI50 (NCI-H226 lung): 2.55 µM
- GI50 (HT29 colon): 2.46 µM
- TGI (HT29 colon): 6.07 µM
- GI50 (K-562 leukemia): 1.75 µM
- TGI (K-562 leukemia): > 100 µM
- GI50 (OVCAR-8 ovarian): 3.2 µM
- TGI (OVCAR-8 ovarian): > 100 µM
- GI50 (U251 CNS): 3.6 µM
- TGI (U251 CNS): > 100 µM
- GI50 (NCI/ADR-RES ovarian): 2.1 µM
- TGI (NCI/ADR-RES ovarian): 6.91 µM
- GI50 (LOX IMVI melanoma): 3.62 µM
- TGI (LOX IMVI melanoma): > 100 µM
- GI50 (RXF 393 renal): 1.59 µM
- TGI (RXF 393 renal): 8.46 µM
- GI50 (M14 melanoma): 2.53 µM
- TGI (M14 melanoma): 71 µM
